Measured values taken from US20080009025A1, “PROTEIN KINASE REGULATION” (priority 1999, published 2008).
Where a SMILES comes first, the peptide text is derived from it.

How the values were obtained:
[1] = test system: PKBα; test: IGF1-induced activation and Ser473 phosphorylation of HA-PKBα in co-transfected 293 cells; assay type: cell-based, human
Procedure: FIG. 4. […] 293 cells were co-transfected with constructs expressing the wild type full length HA-PKBα with either GST-PIF or GST. 24 h post transfection the cells were serum starved for 16 h and then stimulated for 15 min with 100 nM IGF1. The cells were lysed and HA-PKBα was immunoprecipitated and assayed as described in Methods. Protein from each lysate (10 μg) was electrophoresed on a 10% SDS/polyarylamide gel and immunoblotted using HA-antibody or the S473-P antibody. The HA-PKBα activities shown are the averages ±SEM for a single experiment carried out in triplicate, similar results were obtained in 3 separate experiments.
293 cells cultured on 10 cm diameter dishes in Dulbecco's Modified Eagle's Medium containing 10% (by vol) foetal bovine serum, were transfected with 2 μg of DNA construct encoding either wild type or mutant HA-p70 S6K or HA-PKBα, and 10 μg of DNA construct encoding either GST-PIF, GST-F977A-PIF, GST, Myc-PDK1, kinase-dead Myc-PDK1, or the empty pCMV5 vector using a modified calcium phosphate method. 24 h post transfection the cells were deprived of serum for 16 h, and exposed to IGF1 (100 nM) for the time indicated. […] The protein concentrations of the lysates were determined by the Bradford method. […]

[2] = molecular target: T1, PDK1 (Homo sapiens, UniProt O15530); test: PDK1 activity towards synthetic peptide substrates T308tide or PDKtide; assay type: biochemical; set-up: Full length PDK1 (residues 1-556); made in house; host or cells: 293 cells; settings: substrate T308tide
T1 sequence (O15530 1-556): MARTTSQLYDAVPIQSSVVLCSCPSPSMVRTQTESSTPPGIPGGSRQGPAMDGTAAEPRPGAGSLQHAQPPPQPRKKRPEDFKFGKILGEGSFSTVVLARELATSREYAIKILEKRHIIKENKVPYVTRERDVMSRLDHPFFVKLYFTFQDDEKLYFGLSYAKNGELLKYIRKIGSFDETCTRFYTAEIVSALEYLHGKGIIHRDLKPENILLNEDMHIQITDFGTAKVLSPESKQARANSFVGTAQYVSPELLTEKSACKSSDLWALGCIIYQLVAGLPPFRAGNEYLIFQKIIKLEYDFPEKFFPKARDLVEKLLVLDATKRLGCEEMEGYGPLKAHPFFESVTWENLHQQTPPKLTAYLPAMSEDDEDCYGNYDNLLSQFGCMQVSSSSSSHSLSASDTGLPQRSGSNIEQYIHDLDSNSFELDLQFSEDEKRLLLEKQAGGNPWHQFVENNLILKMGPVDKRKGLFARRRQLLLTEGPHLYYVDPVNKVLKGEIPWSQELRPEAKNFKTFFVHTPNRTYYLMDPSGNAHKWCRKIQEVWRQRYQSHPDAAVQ
Procedure: FIG. 12. PDK1 is activated and stabilised through its interaction with PIFtide. (A) GST-PDK1 activity was measured in the presence of increasing concentrations of wild type (wt) PIFtide (closed circles) or a mutant D978A PIFtide (open circles) using the synthetic peptide substrate termed T308tide, as described in Material and Methods. The data was fitted to a hyperbola using the Kaleidagraph™ software. The connection needed to obtain 50% activation of PDK1 was […] for wt-PIFtide and 1.1 μM for D978A-PIFtide. The assay shown was performed in triplicate and there was less than 5% difference between each assay. Similar results were obtained in 2 further experiments (B)—The wild type GST-PDK1 (circles) or the L155D mutant of GST-PDK1 (squares) was incubated in the presence (closed symbols) or absence (open symbols) of […] PIFtife and then for 2 min at the indicated temperatures, rapidly brought to 0° C. (see Materials and Methods), and 2 min later assayed at 30° C. for 10 min using T308tide as substrate. The activity of PDK1 obtained by incubation at 30° C. was taken as 100%. The assay shown was performed in duplicate with similar results obtained in two separate experiments.
FIG. 14. […] (A) His-PDK1 was assayed for activity using as substrate the indicated concentration of either PDKtide (open triangles) or T308tide (open circles). […]
PDK1's ability to phosphorylate Thr308 of PKBα was measured using a mutant of GST-PKBα in which Ser473 was mutated to Asp (GST-473D PKBα) in the presence of phospholipid vesicles containing sn-1-stearoyl-2-arachidonoyl-D-PtdIns (3, 4, 5)P3 [13]. […] 35 μl of the resultant mixture was spotted into P81 phosphocellulose paper (2×2 cm) and the papers washed and analysed as described previously for assays of MAP kinase. […] Control assays were carried out in parallel in which either PDK1, or peptide substrate were omitted; these values were always less than 5% of the activity measured in the presence of these reagents. […]

With “GST-PIF: glutathione S-transferase fused to the last 77 residues of PRK2 (PIF)” the “IGF1-induced phosphorylation of HA-PKBα at Ser473” value [1] was “did not inhibit or potentiate”.
In the case of `CC[C@H](C)[C@H](NC(=O)[C@H](CCCNC(=N)N)NC(=O)[C@@H]1CCCN1C(=O)[C@H](CCC(=O)O)NC(=O)[C@@H](N)CCCNC(=N)N)C(=O)N[C@@H](CC(C)C)C(=O)N[C@@H](CO)C(=O)N[C@@H](CCC(=O)O)C(=O)N[C@@H](CCC(=O)O)C(=O)N[C@@H](CCC(=O)O)C(=O)N[C@@H](CCC(N)=O)C(=O)N[C@@H](CCC(=O)O)C(=O)N[C@@H](CCSC)C(=O)N[C@@H](Cc1ccccc1)C(=O)N[C@@H](CCCNC(=N)N)C(=O)N[C@@H](CC(=O)O)C(=O)N[C@@H](Cc1ccccc1)C(=O)N[C@@H](C)C(=O)N[C@@H](Cc1ccc(O)cc1)C(=O)N[C@@H](CC(C)C)C(=O)N[C@@H](C)C(=O)N[C@@H](CC(=O)O)C(=O)N[C@@H](Cc1c[nH]c2ccccc12)C(=O)N[C@@H](CS)C(=O)O` [D978A-PIFtide] (H-REPRILSEEEQEMFRDFAYLADWC-OH; N-terminus and C-terminus assumed), the “less effective at inducing PDK1 activation than wild type PIFtide” value [2] is reported as 8 fold.
In the case of `CC[C@H](C)[C@H](NC(=O)[C@H](Cc1ccc(O)cc1)NC(=O)[C@H](CC(=O)O)NC(=O)[C@H](Cc1ccccc1)NC(=O)[C@H](CC(=O)O)NC(=O)[C@H](CCCNC(=N)N)NC(=O)[C@H](Cc1ccccc1)NC(=O)[C@H](CCSC)NC(=O)[C@H](CCC(=O)O)NC(=O)[C@H](CCC(N)=O)NC(=O)[C@H](CCC(=O)O)NC(=O)[C@H](CCC(=O)O)NC(=O)[C@H](CCC(=O)O)NC(=O)[C@H](CO)NC(=O)[C@H](CC(C)C)NC(=O)[C@@H](NC(=O)[C@H](CCCNC(=N)N)NC(=O)[C@@H]1CCCN1C(=O)[C@H](CCC(=O)O)NC(=O)[C@@H](N)CCCNC(=N)N)[C@@H](C)CC)C(=O)N[C@@H](C)C(=O)N[C@@H](CC(=O)O)C(=O)N[C@@H](Cc1c[nH]c2ccccc12)C(=O)N[C@@H](CS)C(=O)O` [PIFtide] (H-REPRILSEEEQEMFRDFDYIADWC-OH; N-terminus and C-terminus assumed), the EC50 ([2]; GST-PDK1, read-out: concentration required for half-maximal (50%) activation of PDK1) is reported as 140 nM and the “increase in PDK1 activity towards T308tide” value [2] is reported as “up to 4 fold”.
